According to ChEMBL document CHEMBL5465560, “Selectivity Literature for EUbOPEN Chemogenomic Library” (2024):
Values belong to the molecule of their own block, whether it stands above or below them.

What was measured:
[1] = biological target: E3 ubiquitin-protein ligase TRIM33 (Homo sapiens) (UniProt Q9UPN9); test: Selectivity interaction (Human bromodomain panel (DSF assay)) EUB0000233b TRIM33
[2] = biological target: T1, Serine/threonine-protein kinase STK11 (Homo sapiens) (UniProt Q15831); test: Selectivity interaction (Kinase panel (literature)) EUB0001199aCl STK11; conditions: at 1 µM
T1 sequence (whole entry): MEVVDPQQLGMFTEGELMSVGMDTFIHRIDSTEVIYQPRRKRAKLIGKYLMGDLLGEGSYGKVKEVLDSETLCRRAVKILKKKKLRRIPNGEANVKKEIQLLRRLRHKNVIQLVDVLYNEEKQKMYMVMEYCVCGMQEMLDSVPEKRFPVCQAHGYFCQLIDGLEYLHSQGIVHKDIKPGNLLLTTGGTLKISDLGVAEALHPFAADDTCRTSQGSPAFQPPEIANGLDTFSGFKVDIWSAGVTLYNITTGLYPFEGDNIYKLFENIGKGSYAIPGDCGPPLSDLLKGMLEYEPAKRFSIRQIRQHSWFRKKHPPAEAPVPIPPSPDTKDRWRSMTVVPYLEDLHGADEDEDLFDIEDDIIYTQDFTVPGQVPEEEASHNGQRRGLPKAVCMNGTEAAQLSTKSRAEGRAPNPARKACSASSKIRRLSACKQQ

[3] = biological target: T2, Serine/threonine-protein kinase 3 (Homo sapiens) (UniProt Q13188); conditions: at 10 µM
T2 sequence (whole entry): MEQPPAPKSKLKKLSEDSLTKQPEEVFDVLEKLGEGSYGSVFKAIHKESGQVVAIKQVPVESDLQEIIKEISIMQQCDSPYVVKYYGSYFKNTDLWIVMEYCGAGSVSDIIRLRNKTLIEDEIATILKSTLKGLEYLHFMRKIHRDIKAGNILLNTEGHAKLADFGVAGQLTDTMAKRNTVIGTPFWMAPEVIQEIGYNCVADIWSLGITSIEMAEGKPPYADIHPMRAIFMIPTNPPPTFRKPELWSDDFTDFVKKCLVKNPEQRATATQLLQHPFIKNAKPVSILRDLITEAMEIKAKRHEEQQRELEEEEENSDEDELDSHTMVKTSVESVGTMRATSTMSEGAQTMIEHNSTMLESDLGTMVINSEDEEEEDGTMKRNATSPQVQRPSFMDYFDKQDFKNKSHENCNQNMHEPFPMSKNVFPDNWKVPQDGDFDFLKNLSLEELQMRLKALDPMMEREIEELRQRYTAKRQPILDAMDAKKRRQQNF

[4] = biological target: MAP kinase-interacting serine/threonine-protein kinase 1 (Homo sapiens) (UniProt Q9BUB5); test: Selectivity interaction (KinomeScan (DiscoverX)) EUB0000695a MKNK1; conditions: at 100 nM
Sequence of MAP kinase-interacting serine/threonine-protein kinase 1 (Homo sapiens) (Q9BUB5 whole entry, looked up, canonical isoform): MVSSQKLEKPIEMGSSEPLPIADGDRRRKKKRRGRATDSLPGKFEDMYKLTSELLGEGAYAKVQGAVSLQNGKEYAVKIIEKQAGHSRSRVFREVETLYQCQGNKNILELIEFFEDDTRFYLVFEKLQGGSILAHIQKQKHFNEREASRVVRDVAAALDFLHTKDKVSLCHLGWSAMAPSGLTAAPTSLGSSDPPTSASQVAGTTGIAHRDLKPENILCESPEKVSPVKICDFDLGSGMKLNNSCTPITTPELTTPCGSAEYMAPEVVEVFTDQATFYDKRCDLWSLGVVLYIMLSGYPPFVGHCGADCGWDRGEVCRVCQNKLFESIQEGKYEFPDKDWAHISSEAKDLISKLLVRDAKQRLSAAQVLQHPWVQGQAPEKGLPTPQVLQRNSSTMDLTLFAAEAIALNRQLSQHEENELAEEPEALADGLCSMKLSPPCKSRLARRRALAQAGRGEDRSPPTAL

[5] = biological target: Casein kinase I isoform epsilon (Homo sapiens, UniProt P49674); test: Selectivity interaction (KinomeScan (DiscoverX)) EUB0000045b CSNK1E
Sequence of Casein kinase I isoform epsilon (P49674 whole entry, looked up, canonical isoform): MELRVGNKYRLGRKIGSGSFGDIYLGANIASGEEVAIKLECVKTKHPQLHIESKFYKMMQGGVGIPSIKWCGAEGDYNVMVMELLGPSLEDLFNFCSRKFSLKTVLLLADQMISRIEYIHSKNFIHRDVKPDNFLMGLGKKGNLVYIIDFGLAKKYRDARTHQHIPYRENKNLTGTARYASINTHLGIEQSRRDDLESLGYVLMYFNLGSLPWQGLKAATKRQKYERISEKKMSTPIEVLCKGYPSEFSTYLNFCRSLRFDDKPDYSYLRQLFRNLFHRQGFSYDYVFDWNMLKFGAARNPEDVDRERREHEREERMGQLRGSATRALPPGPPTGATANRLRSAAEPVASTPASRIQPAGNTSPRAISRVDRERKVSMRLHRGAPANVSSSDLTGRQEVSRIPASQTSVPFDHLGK

[6] = biological target: Ribosomal protein S6 kinase alpha-5 (Homo sapiens) (UniProt O75582); test: Selectivity interaction (KinomeScan (DiscoverX)) EUB0000045b RPS6KA5; conditions: at 10 µM
Sequence of Ribosomal protein S6 kinase alpha-5 (Homo sapiens) (O75582 whole entry, looked up): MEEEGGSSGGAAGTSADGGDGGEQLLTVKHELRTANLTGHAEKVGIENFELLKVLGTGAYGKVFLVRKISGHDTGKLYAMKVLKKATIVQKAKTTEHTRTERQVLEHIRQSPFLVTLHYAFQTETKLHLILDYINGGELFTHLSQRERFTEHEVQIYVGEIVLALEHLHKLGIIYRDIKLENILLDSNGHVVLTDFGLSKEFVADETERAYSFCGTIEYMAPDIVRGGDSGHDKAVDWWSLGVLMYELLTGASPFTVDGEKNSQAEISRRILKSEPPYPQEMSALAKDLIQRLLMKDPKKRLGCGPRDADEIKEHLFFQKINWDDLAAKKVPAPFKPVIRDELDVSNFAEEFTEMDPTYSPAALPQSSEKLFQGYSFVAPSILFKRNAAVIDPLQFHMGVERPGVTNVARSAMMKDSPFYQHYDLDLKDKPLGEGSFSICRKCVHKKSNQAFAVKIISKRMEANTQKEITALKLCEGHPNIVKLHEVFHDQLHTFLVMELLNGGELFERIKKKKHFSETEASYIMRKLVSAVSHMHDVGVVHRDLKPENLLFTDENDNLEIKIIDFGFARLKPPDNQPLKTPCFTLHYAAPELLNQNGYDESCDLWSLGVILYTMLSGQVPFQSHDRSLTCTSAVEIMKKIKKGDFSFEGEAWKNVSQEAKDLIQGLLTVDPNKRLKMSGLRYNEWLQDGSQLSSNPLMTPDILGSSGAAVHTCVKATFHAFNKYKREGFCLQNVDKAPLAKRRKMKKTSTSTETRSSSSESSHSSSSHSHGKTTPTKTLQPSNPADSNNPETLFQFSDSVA

[7] = biological target: Serine/threonine-protein kinase PAK 2 (Homo sapiens) (UniProt Q13177); test: Selectivity interaction (KinomeScan (DiscoverX)) EUB0000229b PAK2; conditions: at 10 µM
Sequence of Serine/threonine-protein kinase PAK 2 (Homo sapiens) (Q13177 whole entry): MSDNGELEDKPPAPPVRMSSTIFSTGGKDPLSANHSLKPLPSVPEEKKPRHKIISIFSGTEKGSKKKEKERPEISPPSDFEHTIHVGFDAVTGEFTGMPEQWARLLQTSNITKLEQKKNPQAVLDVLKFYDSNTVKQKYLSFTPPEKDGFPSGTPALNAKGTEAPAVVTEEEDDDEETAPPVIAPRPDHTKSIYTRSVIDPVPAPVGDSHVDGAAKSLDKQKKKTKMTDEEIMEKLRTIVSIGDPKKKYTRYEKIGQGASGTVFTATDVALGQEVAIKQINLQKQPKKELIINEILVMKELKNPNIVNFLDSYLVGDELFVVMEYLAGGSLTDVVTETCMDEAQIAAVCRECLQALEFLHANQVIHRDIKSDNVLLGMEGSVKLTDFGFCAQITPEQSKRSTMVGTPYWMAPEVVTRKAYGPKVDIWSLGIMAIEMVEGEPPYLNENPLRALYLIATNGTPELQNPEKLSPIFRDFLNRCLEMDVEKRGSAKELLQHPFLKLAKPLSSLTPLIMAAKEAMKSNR

[8] = biological target: T3, cAMP-dependent protein kinase catalytic subunit PRKX (Homo sapiens) (UniProt P51817); conditions: at 10 µM
T3 sequence (whole entry): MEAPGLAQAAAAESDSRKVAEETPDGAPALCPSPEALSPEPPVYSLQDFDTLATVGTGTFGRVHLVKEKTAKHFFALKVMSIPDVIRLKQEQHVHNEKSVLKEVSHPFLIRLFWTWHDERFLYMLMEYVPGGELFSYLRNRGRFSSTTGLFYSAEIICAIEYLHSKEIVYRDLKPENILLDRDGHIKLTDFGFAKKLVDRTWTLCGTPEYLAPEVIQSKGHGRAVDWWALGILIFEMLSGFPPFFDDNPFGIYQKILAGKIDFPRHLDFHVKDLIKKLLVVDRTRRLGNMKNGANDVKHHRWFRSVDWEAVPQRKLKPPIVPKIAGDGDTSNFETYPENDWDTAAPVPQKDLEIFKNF

[9] = biological target: T4, Mitogen-activated protein kinase kinase kinase 12 (Homo sapiens) (UniProt Q12852); test: Selectivity interaction (KinomeScan (DiscoverX)) EUB0000618a MAP3K12; conditions: at 10 µM
T4 sequence (whole entry): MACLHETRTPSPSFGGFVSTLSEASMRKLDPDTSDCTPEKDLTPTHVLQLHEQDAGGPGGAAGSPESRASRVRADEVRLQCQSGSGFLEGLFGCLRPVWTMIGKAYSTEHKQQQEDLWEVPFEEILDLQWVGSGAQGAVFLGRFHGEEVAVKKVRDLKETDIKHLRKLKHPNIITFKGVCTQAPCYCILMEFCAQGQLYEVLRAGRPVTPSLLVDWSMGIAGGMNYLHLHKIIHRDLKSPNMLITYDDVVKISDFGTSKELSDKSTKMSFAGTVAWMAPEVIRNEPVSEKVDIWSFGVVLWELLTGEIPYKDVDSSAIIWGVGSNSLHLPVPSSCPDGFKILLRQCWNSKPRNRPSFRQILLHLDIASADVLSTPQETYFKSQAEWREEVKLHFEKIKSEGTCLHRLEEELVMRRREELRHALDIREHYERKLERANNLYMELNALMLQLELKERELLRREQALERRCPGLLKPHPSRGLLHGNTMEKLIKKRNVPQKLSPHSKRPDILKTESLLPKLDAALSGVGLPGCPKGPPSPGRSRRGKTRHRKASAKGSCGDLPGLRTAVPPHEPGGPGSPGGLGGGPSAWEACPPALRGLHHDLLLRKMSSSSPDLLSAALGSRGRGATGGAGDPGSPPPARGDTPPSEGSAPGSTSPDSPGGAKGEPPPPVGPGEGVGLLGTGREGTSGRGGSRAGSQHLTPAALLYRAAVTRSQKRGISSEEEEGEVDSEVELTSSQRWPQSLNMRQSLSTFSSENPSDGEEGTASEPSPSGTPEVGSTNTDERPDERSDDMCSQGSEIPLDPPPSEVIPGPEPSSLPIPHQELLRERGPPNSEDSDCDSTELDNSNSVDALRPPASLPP

Sequence of E3 ubiquitin-protein ligase TRIM33 (Homo sapiens) (Q9UPN9 whole entry): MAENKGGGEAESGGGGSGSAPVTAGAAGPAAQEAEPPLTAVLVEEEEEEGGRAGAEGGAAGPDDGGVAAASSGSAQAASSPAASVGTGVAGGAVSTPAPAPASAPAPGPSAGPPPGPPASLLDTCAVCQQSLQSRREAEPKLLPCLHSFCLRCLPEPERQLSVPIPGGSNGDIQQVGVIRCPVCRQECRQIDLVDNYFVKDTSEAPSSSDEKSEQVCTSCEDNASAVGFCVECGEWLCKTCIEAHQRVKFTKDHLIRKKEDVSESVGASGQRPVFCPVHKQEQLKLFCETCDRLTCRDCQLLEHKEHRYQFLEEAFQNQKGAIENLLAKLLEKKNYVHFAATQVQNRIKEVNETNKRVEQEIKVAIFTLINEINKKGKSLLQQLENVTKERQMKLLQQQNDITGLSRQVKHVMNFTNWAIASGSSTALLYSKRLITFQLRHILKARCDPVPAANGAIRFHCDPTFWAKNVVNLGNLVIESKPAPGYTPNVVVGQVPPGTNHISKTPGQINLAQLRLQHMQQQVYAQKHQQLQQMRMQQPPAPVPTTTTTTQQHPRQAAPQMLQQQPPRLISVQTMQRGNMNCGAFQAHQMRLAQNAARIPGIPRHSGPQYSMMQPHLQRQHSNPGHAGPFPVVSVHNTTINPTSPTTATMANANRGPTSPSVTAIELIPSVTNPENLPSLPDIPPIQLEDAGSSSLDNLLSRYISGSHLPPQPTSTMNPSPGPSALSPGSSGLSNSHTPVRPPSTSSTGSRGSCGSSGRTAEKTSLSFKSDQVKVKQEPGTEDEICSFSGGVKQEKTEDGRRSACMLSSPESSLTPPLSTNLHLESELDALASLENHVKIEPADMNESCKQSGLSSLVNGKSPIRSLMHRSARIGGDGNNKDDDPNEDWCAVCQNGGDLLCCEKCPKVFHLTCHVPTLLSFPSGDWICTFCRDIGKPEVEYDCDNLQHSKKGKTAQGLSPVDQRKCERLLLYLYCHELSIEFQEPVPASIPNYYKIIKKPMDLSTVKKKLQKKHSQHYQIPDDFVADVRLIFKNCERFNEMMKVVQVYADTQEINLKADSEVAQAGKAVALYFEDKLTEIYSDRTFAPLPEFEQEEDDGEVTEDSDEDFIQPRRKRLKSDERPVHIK

dTM [1]: < 2 K
Compound: CN(C)CCCOc1ccc(-c2cc(NCCCn3cccn3)nc(S(C)(=O)=O)n2)cc1

% of inhibition [2]: 3%
Compound: CN1Cc2nccc(-c3cn(C)nc3-c3ccc(F)cc3)c2C1=O

% of control [3]: 100%
Compound: CCN(CC)CCCCNc1ncc2cc(-c3cc(OC)cc(OC)c3)c(NC(=O)NC(C)(C)C)nc2n1

Compound: Cc1cc(F)c(C(=O)Nc2cccc(-c3nncn3C(C)C)n2)cc1-n1cnc(C2CC2)c1
% of control [4]: 96%

Compound: C=CC(=O)Nc1cc(-n2c(=O)ccc3cnc4ccc(-c5ccc(NS(C)(=O)=O)cc5)cc4c32)ccc1C
% of control ([5]; at 1 µM): 100% | % of control ([5]; at 10 µM): 100% | % of control [6]: 80%

Compound: COc1cc(N(C)c2ccnc3ccc(C(F)(F)F)cc23)cc(OC)c1OC
% binding [7]: 77%

Compound: Cc1cc([C@@H](C)Nc2ccccc2C(=O)O)c2nc(N3CCOCC3)cc(=O)n2c1 [AZD-6482]
% of control [8]: 91%

Compound: O[C@H]1CC[C@H](Nc2ncc3nc(Nc4c(F)cc(F)cc4F)n([C@H]4CCOC4)c3n2)CC1
% of control [9]: 100%
